Experimental data taken from patent publication US9120820B2, “Fluorescent molecular probes for use in assays that measure test compound competitive binding with SAM-utilizing proteins” (CAYMAN CHEMICAL COMPANY, INCORPORATED, priority 2011, dated 2015).

Columns and labels:
Assay type in all cases: biochemical
PRMT1 = molecular target: T1, PRMT1 (Homo sapiens, UniProt Q99873); assay: Radiometric methyltransferase assay, PRMT1; settings: PRMT1 100 nM; compound 10 μM, 1 μM, or 0.1 μM; FIG. 13
T1 construct: purchased Cayman
T1 sequence (Q99873 whole entry): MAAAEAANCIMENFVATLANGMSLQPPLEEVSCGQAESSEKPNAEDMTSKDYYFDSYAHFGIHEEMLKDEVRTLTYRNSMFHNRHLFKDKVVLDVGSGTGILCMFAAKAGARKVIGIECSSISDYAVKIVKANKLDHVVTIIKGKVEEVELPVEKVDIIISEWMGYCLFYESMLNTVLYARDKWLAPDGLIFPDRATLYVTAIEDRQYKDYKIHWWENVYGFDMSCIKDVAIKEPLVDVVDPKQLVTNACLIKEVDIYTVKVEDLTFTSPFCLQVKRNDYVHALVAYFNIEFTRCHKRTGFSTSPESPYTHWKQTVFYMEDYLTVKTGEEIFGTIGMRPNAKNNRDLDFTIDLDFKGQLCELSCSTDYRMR
Description: (§1) Reagents: Compound 16A was prepared by the method described in Example 4 and illustrated in FIG. 5. The Compounds 20A-iv and 20A-iii were prepared according to methods described in Example 6 and illustrated in FIG. 7. Enzymes were obtained from the Cayman Catalog with the exception of PRMT4 and PRMT6, which were produced in baculovirus and purified to near homogeneity using Ni-affinity chromatography. Human core histones were purified from HeLa nuclear pellet per the method of Coté et al. S-adenosylmethionine (SAM) was obtained from Sigma-Aldrich (Cat #A7007) and S-[methyl-3H]-SAM was obtained from Perkin-Elmer ([…]). Methods: […] To this was added enzyme diluted to provide a final assay concentration (GLP: 10 nM; PRMT1: 100 nM; SET7/9: 120 nM; PRDM9: 120 nM; PRMT4: 150 nM; PRMT6: 120 nM; G9a: 200 nM) and the compound was allowed to preincubate for 10 minutes at room temperature. […] Samples were mixed immediately after quenching and transferred to a 96-well GFC Uni-Filter microtiter filter plate (Perkin Elmer, Cat#6005174) that contained 50 μl of 20% TCA. Samples were allowed to precipitate for at least 5 minutes at room temperature. The samples were filtered onto the GFC membrane and washed four times with 100 μl of 10% TCA and once with 100 μl of 95% EtOH. To each well was added 25 μl of MicroScint-20 (Perkin-Elmer Cat#6013621) and samples were analyzed using a TopCount NXT microplate scintillation counter. The experiment was performed one time in duplicate for all compound concentrations tested and in triplicate for the vehicle and no enzyme controls. All data was analyzed in GraphPad Prism (v. 5.04).

SET7/9 = molecular target: T2, SET7/9 (Homo sapiens, UniProt Q8WTS6); assay: Radiometric methyltransferase assay, SET7/9; settings: SET7/9 120 nM; compound 10 μM, 1 μM, or 0.1 μM; FIG. 13
T2 construct: purchased Cayman 10320
T2 sequence (Q8WTS6 1-366): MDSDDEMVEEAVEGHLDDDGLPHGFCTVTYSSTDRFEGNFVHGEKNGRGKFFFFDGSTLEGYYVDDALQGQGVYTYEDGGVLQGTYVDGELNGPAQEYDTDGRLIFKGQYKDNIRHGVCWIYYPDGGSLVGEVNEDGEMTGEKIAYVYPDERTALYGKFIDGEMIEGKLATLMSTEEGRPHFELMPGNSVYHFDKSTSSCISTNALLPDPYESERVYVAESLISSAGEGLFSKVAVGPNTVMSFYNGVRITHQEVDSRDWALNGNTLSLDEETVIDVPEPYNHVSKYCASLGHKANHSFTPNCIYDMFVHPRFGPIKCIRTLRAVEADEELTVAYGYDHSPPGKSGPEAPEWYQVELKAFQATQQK
Description: as §1

G9a = molecular target: T3, G9a (Homo sapiens, UniProt Q96KQ7); assay: Radiometric methyltransferase assay, G9a; settings: G9a 200 nM; compound 10 μM, 1 μM, or 0.1 μM; FIG. 13
T3 construct: purchased Cayman 49010353
T3 sequence (Q96KQ7 1-1210): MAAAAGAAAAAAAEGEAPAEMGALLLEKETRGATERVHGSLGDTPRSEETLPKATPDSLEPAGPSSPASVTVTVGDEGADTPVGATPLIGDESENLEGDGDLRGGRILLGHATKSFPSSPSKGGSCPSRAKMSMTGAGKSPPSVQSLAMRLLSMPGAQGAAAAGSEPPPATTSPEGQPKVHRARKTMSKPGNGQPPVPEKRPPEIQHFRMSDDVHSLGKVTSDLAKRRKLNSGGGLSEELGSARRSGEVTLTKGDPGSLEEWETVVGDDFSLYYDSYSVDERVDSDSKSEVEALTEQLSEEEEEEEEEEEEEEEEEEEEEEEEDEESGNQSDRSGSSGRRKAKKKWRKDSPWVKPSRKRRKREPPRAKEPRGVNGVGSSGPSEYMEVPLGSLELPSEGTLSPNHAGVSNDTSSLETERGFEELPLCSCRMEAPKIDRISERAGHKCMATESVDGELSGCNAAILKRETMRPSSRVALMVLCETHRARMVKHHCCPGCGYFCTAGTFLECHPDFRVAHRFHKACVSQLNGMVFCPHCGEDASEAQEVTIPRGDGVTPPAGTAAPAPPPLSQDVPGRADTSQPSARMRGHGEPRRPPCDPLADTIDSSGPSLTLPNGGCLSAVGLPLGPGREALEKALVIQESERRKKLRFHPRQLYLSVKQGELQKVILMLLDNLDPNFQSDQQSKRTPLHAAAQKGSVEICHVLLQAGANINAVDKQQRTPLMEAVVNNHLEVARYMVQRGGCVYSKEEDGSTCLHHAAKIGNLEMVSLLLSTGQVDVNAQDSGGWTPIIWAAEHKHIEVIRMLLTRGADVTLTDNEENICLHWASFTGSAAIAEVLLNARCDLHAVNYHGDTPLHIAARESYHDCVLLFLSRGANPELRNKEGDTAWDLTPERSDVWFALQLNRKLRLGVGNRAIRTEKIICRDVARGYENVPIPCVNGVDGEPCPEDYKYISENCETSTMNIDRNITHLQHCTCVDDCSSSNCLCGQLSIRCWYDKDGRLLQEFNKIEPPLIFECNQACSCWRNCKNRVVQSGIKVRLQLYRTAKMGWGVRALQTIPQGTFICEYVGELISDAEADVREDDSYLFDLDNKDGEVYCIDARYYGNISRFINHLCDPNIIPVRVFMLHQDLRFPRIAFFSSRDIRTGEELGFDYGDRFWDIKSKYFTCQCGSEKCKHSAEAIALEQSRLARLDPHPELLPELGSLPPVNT
Description: as §1

Row | inhibition of enzymatic activity (PRMT1) | inhibition of enzymatic activity (SET7/9) | inhibition of enzymatic activity (G9a) | Compound
1 | inhibits | not dramatically altering the activity | inhibits | CSC[C@H]1O[C@@H](n2cnc3c(N)nc(NCCNC(=O)OC(C)(C)C)nc32)[C@H](O)[C@@H]1O [Compound 16A, tert-butyl (2-((6-amino-9-((2R,3R,4S,5S)-3,4-dihydroxy-5-((methylthio)methyl)tetrahydrofuran-2-yl)-9H-purin-2-yl)amino)ethyl)carbamate]
2 | did not show appreciable inhibition | did not show appreciable inhibition | did not show appreciable inhibition | CCNC(=O)[C@H]1O[C@@H](n2cnc3c(N)nc(Cl)nc32)[C@H](O)[C@@H]1O [Compound 20A-iii, 2-chloroadenosine-5′-N-ethylcarboxamide]
3 | did not show appreciable inhibition | did not show appreciable inhibition | did not show appreciable inhibition | CCNC[C@H]1O[C@@H](n2cnc3c(N)nc(Cl)nc32)[C@H](O)[C@@H]1O [Compound 20A-iv, 2-chloroadenosine-5′-N-ethylamine]
